Measurements taken from patent publication US20230390345A1, “COMBINATION THERAPY COMPRISING HER-2-DC1 VACCINE, A PROBIOTIC, AND SEMAPHORIN” (H. LEE MOFFITT CANCER CENTER AND RESEARCH INSTITUTE, INC., priority 2020, published 2023).

Columns and labels:
TUBO tumors = assay: Monotherapies in HER2+ BC murine model (FIG. 8); format: in vivo, Balb/C mice; settings: monotherapy
Experimental: (§1) Balb/C mice or C57BL/6 mice received tumor cells on day 0 followed by different treatments; two doses of Taxol given intraperitoneally (i.p.) once a week; CDK inhibitor, abemaciclib was administered by oral gavage till end point; Anti-PD-L1 was given i.p. twice a week until end point; DC1 vaccine was given intratumorally.

4T1 = assay: Therapies in TNBC model 4T1 (FIG. 8); format: in vivo, Balb/C mice; settings: 4T1 TNBC model
Experimental: as §1

With `CC(=O)O[C@H]1C(=O)[C@@]2(C)[C@H]([C@H](OC(=O)c3ccccc3)[C@]3(O)C[C@H](OC(=O)[C@H](O)[C@@H](NC(=O)c4ccccc4)c4ccccc4)C(C)=C1C3(C)C)[C@]1(OC(C)=O)CO[C@@H]1C[C@@H]2O` [taxol, paclitaxel] the tumor growth (TUBO tumors) was “modestly delayed tumor growth” and the tumor growth (4T1) was “no effect on tumor growth”.
